Test results published in paper PMC3304000 (Bioorganic & medicinal chemistry, 2012).
Values after ≈ are worked out from the molar mass of the structure shown. Values joined by “and” are separate entries in the source; they are usually repeats but may differ in a detail not shown here. Equal entries are not always repeated.

Assays:
[1] = system: Drug sensitive Mtb clinical strain #1; test: MIC against clinical Mtb strain in 7H9/glucose/glycerol/BSA/0.05% Tween 80; format: cell-based; details: Mycobacterium tuberculosis
[2] = system: Mtb H37Rv luxAB luminescence strain; test: microbe, parasite or virus in culture; format: cell-based; details: Mycobacterium tuberculosis, read-out: LORA MIC (mean ± SD)
[3] = system: twelve MDR- and XDR-Mtb strains; details: cited from earlier work
[4] = Stability in simulated gastric fluid; details: after a 15-min incubation
[5] = system: Drug sensitive Mtb clinical strain #2; test: MIC against clinical Mtb strain in 7H9/glucose/glycerol/BSA/0.05% Tween 80; format: cell-based; details: Mycobacterium tuberculosis
[6] = In vitro stability in rat liver microsomes; details: after a 15-min incubation

Row | SMILES | MIC [1] | compound remaining in simulated gastric fluid [4] [%] | other results
1 | Cc1ccn2c(C(=O)OCc3ccccc3)c(C)nc2c1 [Compound 11, benzyl 2,7-dimethylimidazo[1,2-a]pyridine-3-carboxylate] | < 0.01 µg/mL | – | –
2 | O=C(OCc1ccccc1)c1csc(-c2ccccc2)n1 [Compound 5] | 10 µg/mL (≈ 33.9 µM) | – | –
3 | O=[N+]([O-])c1cn2c(n1)OC[C@@H](OCc1ccc(OC(F)(F)F)cc1)C2 [PA-824, reference compound] | 0.45 µM to 0.86 µM and 0.16 µg/mL to 0.31 µg/mL | – | –
4 | Cc1ccn2c(C(=O)OCc3ccccc3)c(-c3ccccc3)nc2c1 [Compound 9, benzyl 7-methyl-2-phenylimidazo[1,2-a]pyridine-3-carboxylate] | – | – | MIC [2]: 22 µM (≈ 7.53 µg/mL)
5 | Cc1ccn2c(C(=O)NCc3ccccc3)c(C)nc2c1 [Compound 12, N-benzyl-2,7-dimethylimidazo[1,2-a]pyridine-3-carboxamide] | – | 100 | MIC against a panel of twelve MDR- and XDR-Mtb strains [3]: 0.07 to 2.3 µM
6 | O=C(OCc1ccccc1)c1coc(-c2ccccc2)n1 [Compound 2] | 4.4 µM to 8.9 µM and 1.25 µg/mL to 2.5 µg/mL | 0.6 | MIC [5]: 2.2 to 4.4 µM (≈ 0.614 to 1.23 µg/mL); compound remaining in rat liver microsomes [6]: 11%
